Results as given in patent US5968933A, “DNA-targeted alkylating agents” (Auckland Division Cancer Society of New Zealand Inc., priority 1994, dated 1999).
Like-named read-outs stand apart in the source and are kept apart here.

How the values were obtained:
AA8 and UV4 cells = assay: Hypersensitivity factor (AA8/UV4 IC50 ratio); assay type: cell-based, Chinese hamster; settings: ratio of IC50s AA8/UV4
Method: (§1) Representative examples of compounds of the invention were tested for biological activity against tumors. Compounds 1 to 6 and 14 to 21, prepared as described above, were tested for their ability to inhibit growth in vitro of cells of the wild-type murine leukaemia cell line P388, and the cell line AA8 which is derived from Chinese hamster ovary cells. For each compound, the IC50, ie. the concentration of compound which inhibited cell growth in treated cultures to 50% of that of controls, was determined, using means of three determinations. In addition, a hypersensitivity factor was determined by comparing activity of the compounds against AA8 cells to activity against UV4. The latter cell line is deficient in aspects of the excision repair pathway for removing DNA adducts, and is hypersensitive to DNA-alkylating agents, especially interstrand crosslinking agents. Previous work has shown that the ratio of IC50 s determined in the wild-type AA8 and mutant UV4 lines (the hypersensitivity factor HF) is a determinant of the mode of cell killing by alkylating agents (Palmer, B. D. et al, J. Med. Chem., 1990 33 112-121; Wilson, W. R. et al, J. Med. Chem., 1989 32 31-38). Compounds with HFs of ca. 1 are unlikely to kill cells via DNA alkylation events. Compounds which show high HF values are likely to form bulky adducts or cross-links,with the latter being especially likely for compounds showing the highest HF values (>ca. 25) (Wilson et al, op. cit.).
(§2) Cell lines were maintained in exponential growth phase by subculturing in RPMI 1640 (P338) or Alpha MEM (AA8, UV4) containing 10% fetal calf serum, as previously described (Palmer et al, op.cit.; Baguley, B. C. and Wilson, W. R., Eur. J. Cancer Clin. Oncol., 1987 23 607-613). IC50 values were determined using log-phase cultures in 96-well microculture plates, and were calculated as the nominal drug concentration required to reduce the cell density to 50% of control values, using 8 control cultures on each microplate. For P388 cultures, drug was present throughout the growth period (72 h), and final cell densities were determined using a minor modification of the MTT method of Mossman (Mossman, T., J. Immunol. Methods, 1983 65 55-63). For AA8 and UV4 cultures, drug exposure was terminated after 18 h by washing three times with fresh medium. Cultures were then grown for a further 72 h before determining cell density by staining with methylene blue (Finlay, G. J. et al, Anal. Biochem., 1984 139 272-277).

[1] = system: Saccharomyces cerevisiae strain D5
S. typhimurium TA100 = assay: Bacterial mutagenicity, plate incorporation assay, TA100; settings: for reversion colonies, TA100: mean ± SD
calf thymus DNA [2] = assay: Reversible DNA binding by spectrophotometric Scatchard analysis; settings: 20° C., 0.01M HEPES buffer, pH 7.00
AA8 cells = assay: Growth inhibition in vitro, AA8; assay type: cell-based, Chinese hamster; settings: for IC50: AA8 cells, 18 h exposure, then 72 h growth, methylene blue, read-out: IC50
Method: as §1, §2

linearized pSV2gpt DNA = assay: DNA crosslinking assay (agarose gel electrophoresis of linearized plasmid); assay type: biochemical; settings: 2 h at 30° C., TE-80 buffer pH 8
Method: The ability of representative compounds of the invention to bind to and cross-link DNA was examined. This was carried out by agarose gel electrophoresis of plasmid DNA using linearized pSV2gpt DNA (Tindall, K. R. and Stankowski, L. F.; Mutation Research, 1989 220 241-245) and the method reported by Valu et al, 1990, op.cit. Briefly, linearized pSV2gpt DNA (1 μL of a 1 mg/mL solution) was incubated with drug in TE-80 buffer (10 mM Tris.HCl, 1 mM EDTA at pH 8), shielded from ambient light, for 2 h at 30° C., then denatured by the addition of […] of 1% sodium dodecyl sulfate and 10 μL of 50 mM methylmercury hydroxide and incubated for a further 30 min at 20° C. in the dark. Renaturation of drug-treated DNA samples was carried out by incubation with 2.5 μL of 2-mercaptoethanol for 1 h. Samples were prepared for electrophoresis by the addition of 0.1 mg/mL bromophenol blue, 0.5 μg/mL ethidium bromide and 5 μL of 40% sucrose. Electrophoresis was carried out at 120V in 89 mM tris/borate buffer at pH 8 containing 2 mM EDTA and 0.5 μg/mL ethidium bromide. DNA was visualized using 302 nm trans-illumination, and was photographed using Polaroid type 55 film and a Wratten 3A filter.
After drug treatment, DNA is denatured to the single stranded form, which runs as a lower band in the gels (see lanes 1 and 2 in FIG. 1). Cross-linking by the drugs is evidenced by the appearance of increasing amounts of renatured, double stranded DNA, as shown by the upper band in the gels, corresponding to the band for untreated DNA seen in lane 1.

P388 cells = assay: Growth inhibition in vitro, P388 leukaemia; assay type: cell-based, murine; settings: P388 cells, 72 h, MTT, read-out: IC50
Method: as §1, §2

S. typhimurium TA102 = assay: Bacterial mutagenicity, plate incorporation assay, TA102; settings: mean ± SD
calf thymus DNA [3] = assay: Rate of alkylation of calf thymus DNA by increase in DNA-bound fluorescence; assay type: biochemical; design: unit not given here
P338 murine leukaemia = assay type: in vivo, mice; settings: for in vivo antitumour activity: P388, single-dose protocol; for % Increase in lifespan: single i.p. dose 24 h after tumour inoculation, at optimal dose (mg/kg: 1 30; 2 30; 3 13.3; 4 3.9; 5 5.9; 6 8.9)
S. typhimurium TA98 = assay: Bacterial mutagenicity, plate incorporation assay, TA98; settings: mean ± SD
DNA minor groove = settings: background; cited from earlier work
solid tumour lines = settings: other studies; cited from earlier work
L1210 leukemia = settings: repeated dose schedule; cited from earlier work
[4] = 80 μg/plate, square brackets: toxicity becoming apparent
[5] = 40 μg/plate, square brackets: toxicity becoming apparent
[6] = 120 μg/plate, square brackets: toxicity becoming apparent

| SMILES | Hypersensitivity factor (AA8 and UV4 cells) | petite (mitochondrial) mutagenesis [1] | reversion colonies, TA100 (S. typhimurium TA100; 4 μg/plate) | reversion colonies, TA100 (S. typhimurium TA100; 10 μg/plate) | reversion colonies, TA100 (S. typhimurium TA100; 20 μg/plate) | reversion colonies, TA100 (S. typhimurium TA100; 40 μg/plate) | reversion colonies, TA100 (S. typhimurium TA100; 80 μg/plate) | Site size (Number of nucleotide residues) (calf thymus DNA [2]) | IC50 (AA8 cells) | Cross-linking (linearized pSV2gpt DNA) | IC50 (P388 cells) | reversion colonies, TA102 (S. typhimurium TA102; 4 μg/plate) | reversion colonies, TA102 (S. typhimurium TA102; 10 μg/plate) | reversion colonies, TA102 (S. typhimurium TA102; 20 μg/plate) | Rate constant for alkylation (calf thymus DNA [3]) | reversion colonies, TA98 (S. typhimurium TA98; 4 μg/plate) | reversion colonies, TA98 (S. typhimurium TA98; 10 μg/plate) | reversion colonies, TA98 (S. typhimurium TA98; 20 μg/plate) | reversion colonies, TA98 (S. typhimurium TA98; 40 μg/plate) | reversion colonies, TA98 (S. typhimurium TA98; [4]) | other results |
| --- | --- | --- | --- | --- | --- | --- | --- | --- | --- | --- | --- | --- | --- | --- | --- | --- | --- | --- | --- | --- | --- |
| CN1CCN(c2ccc3nc(-c4ccc5nc(-c6ccc(N(CCCl)CCCl)cc6)[nH]c5c4)[nH]c3c2)CC1 [Compound 2, 2-[2-[4-(N,N-bis(2-chloroethyl)amino)phenyl]-5-benzimidazolyl]-5-(1-methyl-4-piperazinyl)benzimidazole] | 24 | inactive | 173 ± 7 | 175 ± 17 | 167 ± 28 | 210 ± 20 | 192 ± 1 | 2.6 nucleotide residues | 1680 nM | No | 800 nM | 408 ± 31 | 371 ± 14 | 280 ± 14 | 1.78 × 10^4 | 61 ± 3 | 68 ± 2 | 58 ± 1 | 52 ± 7 | 55 ± 2 | in vivo antitumour activity (P338 murine leukaemia): highest activity; Optimal dose (P338 murine leukaemia; single i.p. dose): 30 mg/kg; % Increase in lifespan (P338 murine leukaemia): 106%; average number of animals in a group of six which were long-term survivors (P338 murine leukaemia; single i.p. dose, optimal dose, group of six): 2 animals; bacterial mutagenicity (S. typhimurium strains): inactive as a bacterial mutagen |
| CN1CCN(c2ccc3nc(-c4ccc5nc(-c6ccc(O)cc6)[nH]c5c4)[nH]c3c2)CC1 [Pibenzimol, reference compound] | about unity | not active in this system | 188 ± 11 | 191 ± 7 | 179 ± 6 | 168 ± 13 | 178 ± 11 | 2.4 nucleotide residues | – | – | – | 275 ± 12 | 277 ± 1 | 301 ± 3 | – | 59 ± 3 | 64 ± 8 | 55 ± 6 | 61 ± 5 | 62 ± 9 | mutagenicity in TA100 (S. typhimurium TA100; statistical analysis): no statistically significant mutagenic response in TA100; activity against the AA8 cell line (AA8 cells; compared with P388, shorter exposure time): much less active; IC50 (P388 cells; Mus musculus): ~1000 nM; reversion colonies, TA102 (S. typhimurium TA102; [5]): 377 ± 49; reversion colonies, TA102 (S. typhimurium TA102; [4]): 397 ± 10; binding to DNA minor groove (DNA minor groove): binds to regions of the minor groove rich in adenine and thymine bases; in vivo antitumour activity (P338 murine leukaemia): not active against P388 using the single-dose protocol; cytotoxicity in solid tumour lines (solid tumour lines): very low cytotoxicity; in vivo activity against L1210 leukemia (L1210 leukemia): moderate in vivo activity |
| CN1CCN(c2ccc3nc(-c4ccc5nc(CCCCCCc6ccc(N(CCCl)CCCl)cc6)[nH]c5c4)[nH]c3c2)CC1 [Compound 6, 2-[2-[6-[4-(N,N-bis(2-chloroethyl)amino)phenyl]hexyl]-5-benzimidazolyl]-5-(1-methyl-4-piperazinyl)benzimidazole] | 20 | – | 160 ± 13 | 136 ± 0 | 156 ± 29 | 144 ± 10 | 142 ± 10 | 2.4 nucleotide residues | 400 nM | Yes and crosslinked DNA | 60 nM | 271 ± 31 | 386 ± 10 | 342 ± 14 | 9.64 × 10^4 | 65 ± 10 | 69 ± 7 | 68 ± 8 | 69 ± 9 | 96 ± 5 | petite (mitochondrial) mutagenesis ([1]; yeast strain D5, in words): showed activity, albeit weak; reversion colonies, TA100 (S. typhimurium TA100; [6]): 157 ± 14; reversion colonies, TA102 (S. typhimurium TA102; [5]): 372 ± 19; reversion colonies, TA102 (S. typhimurium TA102; [4]): 336 ± 19; reversion colonies, TA102 (S. typhimurium TA102; [6]): 353 ± 34; Optimal dose (P338 murine leukaemia; single i.p. dose): 8.9 mg/kg; % Increase in lifespan (P338 murine leukaemia): 23%; bacterial mutagenicity (S. typhimurium strains; overall): lower bacterial mutagenicity; reversion colonies, TA98 (S. typhimurium TA98; [6]): 75 ± 3 |
